System: not listed separately
Assay: Metabolic stability test in rat liver microsomes
Assay type: in vitro ADME
Conditions: 5 μg/mL, 0.5 mg/mL protein, 30 min incubation
Procedure: (§1) 1) Metabolic Stability Test
(§2) Diluted sample (final 5 μg/mL in 0.1 M potassium phosphate buffer, pH 7.4) was pre-incubated with cofactors (glucose-6-phosphate 3.3 mM, NADPH 1.3 mM, MgCl2 0.16 mM, glucose-6-phosphate dehydrogenase 0.4 U/mL final) and enzyme reaction was initiated with the addition of human intestinal (1 mg/mL protein) or rat liver microsomes (0.5 mg/mL protein). Reaction was terminated with 2× volume of cold acetonitrile after 1 min (initial point) or 30 min (reacted sample) incubation. In case of human intestinal microsomes, 2 hr reaction time was employed. Reaction mixture was undergone extraction in shaking bath over 20 min, after which resultant supernatant was separated by centrifugation. Area of parent compound peak was analyzed in the supernatant using HPLC-UV method and the extent of metabolism was shown as the decreased compound peak area (%) from initial point.

SMILES | Stability RLM (% metabolized in rat liver microsomes) [%]
C#Cc1cc(CNC(=O)/C=C/c2ccc(C(F)(F)F)nc2OC)cc(F)c1NS(C)(=O)=O [Example 42, N-(3-Ethynyl-5-fluoro-4-methanesulfonylamino-benzyl)-3-(2-methoxy-6-trifluoromethyl-pyridin-3-yl)-acrylamide] | 17.1

System: not listed separately
Assay: Metabolic stability test in human intestinal microsomes
Assay type: in vitro ADME
Conditions: 5 μg/mL, 1 mg/mL protein, 2 hr reaction time
Procedure: as §1, §2

SMILES | Stability HIM (% metabolized in human intestinal microsomes) [%]
C#Cc1cc(CNC(=O)/C=C/c2ccc(C(F)(F)F)nc2OC)cc(F)c1NS(C)(=O)=O [Example 42, N-(3-Ethynyl-5-fluoro-4-methanesulfonylamino-benzyl)-3-(2-methoxy-6-trifluoromethyl-pyridin-3-yl)-acrylamide] | 17.1

System: not listed separately
Assay: PK study in rats, single oral administration
Assay type: in vivo
Parameters: AUC: concentration or dose not given beside the values
Conditions: rat, plasma
Procedure: Pharmacokinetics of compounds in rats were analyzed using the following experiment. Rats were fasted overnight prior to administration and until approximately 4 hours after administration. Rats were given a single oral administration of compound at same dose. Administration volume was 10 ml/kg. Blood samples were collected from the retro-orbital sinus at various times over the following 7 hrs. Immediately after each collection, plasmas were separated from blood cells by centrifugation and stored at −20° C. until the analysis was performed. The plasma samples were analyzed using a reverse phase high-performance chromatography (HPLC) method.

SMILES | AUC [ng·h/mL] | Cmax [ng/mL] | Tmax [h] | half-life [h]
C#Cc1cc(CNC(=O)/C=C/c2ccc(C(F)(F)F)nc2)cc(F)c1NS(C)(=O)=O [Example 57, N-(3-Ethynyl-5-fluoro-4-methanesulfonylamino-benzyl)-3-(6-trifluoromethyl-pyridin-3-yl)-acrylamide] | 56500 | 2200 | 0.833 | 3.95
C#Cc1cc(CNC(=O)/C=C/c2ccc(C(F)(F)F)nc2CCC)cc(F)c1NS(C)(=O)=O [Example 206, N-(3-Ethynyl-5-fluoro-4-methanesulfonylamino-benzyl)-3-(2-propyl-6-trifluoromethyl-pyridin-3-yl)-acrylamide] | 25900 | 5500 | 3.5 | 1.42
C=Cc1cc(CNC(=O)/C=C/c2ccc(C(C)(C)C)cc2)cc(F)c1NS(C)(=O)=O [Examples 16] |  | < 100 |  | 
C=Cc1cc(CNC(=O)/C=C/c2ccc(C(C)(C)C)cc2N2CCOCC2)cc(F)c1NS(C)(=O)=O [Examples 22] |  | < 100 |  | 
C=Cc1cc(CNC(=O)/C=C/c2ccc(C(C)(C)C)cc2NC(C)C)cc(F)c1NS(C)(=O)=O [Examples 34] |  | < 100 |  | 
C#Cc1cc(CNC(=O)/C=C/c2ccc(C(C)(C)C)cc2N2CCOCC2)cc(F)c1NS(C)(=O)=O [drawing 350, reference compound] | 706 | 334 | 2 | 0.932

Target: T1, vanilloid receptor (Rattus norvegicus, UniProt O35433)
T1 construct: DRG nerve cells from the primary culture of 2 days were equilibrated; endogenous in cells; host or cells: primary culture of dorsal root ganglion neurons from neonatal SD rats
Assay: 45Ca influx test in cultured neonatal rat DRG neurons, inhibition of capsaicin response
Assay type: cell-based
Conditions: Table 3; unit inferred; read-out: IC50
How it was run: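 Neonatal SD rat DRG neurons, cultured 2 days with NGF (200 ng/ml) and Ara-C, were washed in HEPES (10 mM, pH 7.4)-buffered Ca/Mg-free HBSS. Test compound was added with capsaicin (final 0.5 μM) and 45Ca (10 μCi/ml) for 10 min at room temperature; 45Ca uptake counted by scintillation after SDS elution.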

T1 sequence (O35433 whole entry): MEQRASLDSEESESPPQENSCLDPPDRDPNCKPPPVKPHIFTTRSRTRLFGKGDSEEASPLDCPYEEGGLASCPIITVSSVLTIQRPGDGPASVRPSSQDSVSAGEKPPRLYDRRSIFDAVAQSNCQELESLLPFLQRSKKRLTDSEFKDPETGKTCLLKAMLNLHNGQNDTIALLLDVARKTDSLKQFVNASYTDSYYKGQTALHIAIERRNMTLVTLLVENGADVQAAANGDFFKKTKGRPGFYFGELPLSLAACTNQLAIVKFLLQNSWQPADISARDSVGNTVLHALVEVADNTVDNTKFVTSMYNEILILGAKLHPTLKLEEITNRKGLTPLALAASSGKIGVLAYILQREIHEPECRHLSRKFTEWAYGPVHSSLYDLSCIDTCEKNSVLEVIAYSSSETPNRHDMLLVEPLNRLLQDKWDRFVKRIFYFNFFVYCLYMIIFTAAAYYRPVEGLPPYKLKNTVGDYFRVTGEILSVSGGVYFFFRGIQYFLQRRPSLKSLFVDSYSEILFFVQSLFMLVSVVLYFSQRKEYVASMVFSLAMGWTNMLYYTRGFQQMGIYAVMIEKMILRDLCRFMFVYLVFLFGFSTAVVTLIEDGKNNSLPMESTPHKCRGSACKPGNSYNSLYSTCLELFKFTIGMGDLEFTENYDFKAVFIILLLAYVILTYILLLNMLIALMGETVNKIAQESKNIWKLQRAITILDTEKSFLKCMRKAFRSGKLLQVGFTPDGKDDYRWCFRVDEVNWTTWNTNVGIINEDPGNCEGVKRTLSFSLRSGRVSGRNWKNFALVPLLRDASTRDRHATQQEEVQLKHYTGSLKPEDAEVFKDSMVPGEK

SMILES | IC50 [nM]
C#Cc1cc(CNC(=O)/C=C/c2ccc(C(F)(F)F)nc2)cc(F)c1NS(C)(=O)=O [Example 57, N-(3-Ethynyl-5-fluoro-4-methanesulfonylamino-benzyl)-3-(6-trifluoromethyl-pyridin-3-yl)-acrylamide] | > 10000
C=Cc1cc(CNC(=O)/C=C/c2ccc(C(C)(C)C)cc2)cc(F)c1NS(C)(=O)=O [Examples 16] | 47
C#Cc1cc(CNC(=O)/C=C/c2ccc(C(C)(C)C)cc2N2CCOCC2)cc(F)c1NS(C)(=O)=O [drawing 350, reference compound] | 860

Same assay, conditions: neonatal rat DRG neurons, capsaicin 0.5 μM, 45Ca influx; read-out: Antagonist Calcium Uptake Test (IC50)

SMILES | IC50 [nM]
C#Cc1cc(CNC(=O)/C=C/c2ccc(C(F)(F)F)nc2OC)cc(F)c1NS(C)(=O)=O [Example 42, N-(3-Ethynyl-5-fluoro-4-methanesulfonylamino-benzyl)-3-(2-methoxy-6-trifluoromethyl-pyridin-3-yl)-acrylamide] | 96
C#Cc1cc(CNC(=O)/C=C/c2ccc(C(F)(F)F)nc2)cc(F)c1NS(C)(=O)=O [Example 57, N-(3-Ethynyl-5-fluoro-4-methanesulfonylamino-benzyl)-3-(6-trifluoromethyl-pyridin-3-yl)-acrylamide] | > 10000
C#Cc1cc(CNC(=O)/C=C/c2ccc(C(F)(F)F)nc2CCC)cc(F)c1NS(C)(=O)=O [Example 206, N-(3-Ethynyl-5-fluoro-4-methanesulfonylamino-benzyl)-3-(2-propyl-6-trifluoromethyl-pyridin-3-yl)-acrylamide] | 40
C#Cc1cc(CNC(=O)C#Cc2ccc(C(F)(F)F)nc2NCCCC)cc(F)c1NS(C)(=O)=O [Example 260, 3-(2-Butylamino-6-trifluoromethyl-pyridin-3-yl)-propynoic acid, 3-ethynyl-5-fluoro-4-methanesulfonylamino-benzylamide] | 810
CCCCc1nc(C(F)(F)F)ccc1C#CC(=O)NCc1cc(F)c(NS(C)(=O)=O)c(F)c1 [Example 261, 3-(2-Butyl-6-trifluoromethyl-pyridin-3-yl)-propynoic acid 3,5-difluoro-4-methanesulfonylamino-benzylamide] | 350
CCCCc1nc(C(F)(F)F)ccc1C#CC(=O)N[C@H](C)c1cc(F)c(NS(C)(=O)=O)c(F)c1 [Example 262, 3-(2-Butyl-6-trifluoromethyl-pyridin-3-yl)-propynoic acid [1-(3,5-difluoro-4-methanesulfonylamino-phenyl)-ethyl]-amide] | 150
CCCCc1nc(C(F)(F)F)ccc1C#CC(=O)NCc1ccc(NS(C)(=O)=O)cc1Cl [Example 263, 3-(2-Butyl-6-trifluoromethyl-pyridin-3-yl)-propynoic acid 2-chloro-4-methanesulfonylamino-benzylamide] | 4700
CS(=O)(=O)Nc1ccc(CNC(=O)/C=C/c2ccc(C(F)(F)F)nc2CCc2ccccc2)cc1 [Example 264, N-(4-Methanesulfonylamino-benzyl)-3-(2-phenethyl-6-trifluoromethyl-pyridin-3-yl)-acrylamide] | 340
CC(C)Cc1nc(C(F)(F)F)ccc1/C=C/C(=O)NCc1ccc(NS(C)(=O)=O)cc1 [Example 265, 3-(2-Isobutyl-6-trifluoromethyl-pyridin-3-yl)-N-(4-methanesulfonylamino-benzyl)-acrylamide] | 770
CCCCc1nc(C(F)(F)F)ccc1C#CC(=O)NCc1ccc(NS(C)(=O)=O)cc1 [Example 266, 3-(2-Butyl-6-trifluoromethyl-pyridin-3-yl)-propynoic acid 4-methanesulfonylamino-benzylamide] | 1400
C=CS(=O)(=O)Nc1ccc(CNC(=O)/C=C/c2ccc(C(F)(F)F)nc2NC(C)C)cc1 [Example 267, N-(4-Ethenesulfonylamino-benzyl)-3-(2-isopropylamino-6-trifluoromethyl-pyridin-3-yl)-acrylamide] | 450
C=CS(=O)(=O)Nc1ccc(CNC(=O)/C=C/c2ccc(C(F)(F)F)nc2CCc2ccccc2)cc1 [Example 268, N-(4-Ethenesulfonylamino-benzyl)-3-(2-phenethyl-6-trifluoromethyl-pyridin-3-yl)-acrylamide] | 2900
C=CS(=O)(=O)Nc1ccc(CNC(=O)/C=C/c2ccc(C(F)(F)F)nc2CC(C)C)cc1 [Example 269, N-(4-Ethenesulfonylamino-benzyl)-3-(2-isobutyl-6-trifluoromethyl-pyridin-3-yl)-acrylamide] | 1400
CC(C)Nc1nc(C(F)(F)F)ccc1/C=C/C(=O)NCc1ccc(NS(=O)(=O)C(F)(F)F)cc1 [Example 270, 3-(2-Isopropylamino-6-trifluoromethyl-pyridin-3-yl)-N-(4-trifluoromethanesulfonylamino-benzyl)-acrylamide] | > 10000
CCC/C(=C/C(=O)NCc1ccc(NS(C)(=O)=O)c(Cl)c1)c1ccc(C(F)(F)F)nc1CCC [Example 271] | 1300
CCC/C(=C\C(=O)NCc1ccc(NS(C)(=O)=O)c(Cl)c1)c1ccc(C(F)(F)F)nc1CCC [Example 272] | 740

SMILES | IC50 [nM]
CCCCc1nc(C(F)(F)F)ccc1C#CC(=O)NCc1cc(C)c(NS(C)(=O)=O)c(F)c1 [Example 273, 3-(2-Butyl-6-trifluoromethyl-pyridin-3-yl)-propynoic acid 3-fluoro-4-methanesulfonylamino-5-methyl-benzylamide] | 840
CCCCc1nc(C(F)(F)F)ccc1C#CC(=O)N[C@H](C)c1ccc(NS(C)(=O)=O)c(F)c1 [Example 274, 3-(2-Butyl-6-trifluoromethyl-pyridin-3-yl)-propynoic acid [1-(3-fluoro-4-methane sulfonylamino-phenyl)-ethyl]-amide] | 1200
C#Cc1cc(CNC(=O)/C=C(/CCC)c2ccc(C(F)(F)F)nc2CCC)cc(F)c1NS(C)(=O)=O [Example 275] | 310
C#Cc1cc(CNC(=O)/C=C(\CCC)c2ccc(C(F)(F)F)nc2CCC)cc(F)c1NS(C)(=O)=O [Example 276] | 240
CCC/C(=C/C(=O)N[C@H](C)c1cc(F)c(NS(C)(=O)=O)c(F)c1)c1ccc(C(F)(F)F)nc1CCC [Example 277, (Z)-3-(2-Propyl-6-trifluoromethyl-pyridin-3-yl)-hex-2-enoic acid [1-(3,5-difluoro-4-methanesulfonylamino-phenyl)-ethyl]-amide] | 320
CCC/C(=C\C(=O)N[C@H](C)c1cc(F)c(NS(C)(=O)=O)c(F)c1)c1ccc(C(F)(F)F)nc1CCC [Example 278, (E)-3-(2-Propyl-6-trifluoromethyl-pyridin-3-yl)-hex-2-enoic acid [1-(3,5-difluoro-4-methanesulfonylamino-phenyl)-ethyl]-amide] | 160
O=C(/C=C/c1ccc(C(F)(F)F)nc1CCc1ccccc1)NCc1ccc(NS(=O)(=O)C(F)(F)F)cc1 [Example 279, 3-(2-Phenethyl-6-trifluoromethyl-pyridin-3-yl)-N-(4-trifluoromethanesulfonylamino-benzyl)-acrylamide] | 3900
CC(C)(C)c1ccc(/C=C/C(=O)NCc2ccc(NS(C)(=O)=O)c(F)c2)cn1 [Examples 1] | 1300
CC(C)(C)c1ccc(/C=C/C(=O)NCc2ccc(NS(C)(=O)=O)c(Cl)c2)cn1 [Examples 2] | 1300
C=Cc1cc(CNC(=O)/C=C/c2ccc(C(C)(C)C)nc2)ccc1NS(C)(=O)=O [Examples 4] | 220
COc1nc(C(C)(C)C)ccc1/C=C/C(=O)NCc1ccc(NS(C)(=O)=O)c(F)c1 [Examples 9] | 400
CS(=O)(=O)Nc1ccc(CNC(=O)/C=C/c2ccc(Cl)nc2)cc1F [Examples 16] | > 10000
CS(=O)(=O)Nc1c(F)cc(CNC(=O)/C=C/c2ccc(C(F)(F)F)nc2N2CCOCC2)cc1C(F)(F)F [Examples 22] | 3300
C#Cc1cc(CNC(=O)/C=C/c2ccc(N3CCOCC3)nc2)cc(F)c1NS(C)(=O)=O [Examples 23] | > 10000
CC(C)(C)c1ccc(OCC(=O)NCc2ccc(NS(C)(=O)=O)c(F)c2)c(Br)n1 [Examples 28] | 1600
C#Cc1cc(CNC(=O)COc2ccc(C(C)(C)C)nc2)cc(F)c1NS(C)(=O)=O [Examples 34] | > 10000
